Test results as given in ChEMBL document CHEMBL5518215, “Unlocking Antibacterial Potential: Key-Site-Based Regulation of Antibacterial Spectrum of Peptides” (J Med Chem, 2024).

Tests used:
Escherichia coli [1] = assay: Antimicrobial activity against Escherichia coli 25922 assessed as absence bacterial growth measured after 18 to 24 hrs incubation by NCCLS method; type: functional; conditions: time 18-24 hrs
Escherichia coli [2] = assay: Antimicrobial activity against Escherichia coli K88 assessed as absence bacterial growth measured after 18 to 24 hrs incubation by NCCLS method; type: functional; conditions: time 18-24 hrs
Salmonella typhimurium [3] = assay: Antimicrobial activity against Salmonella typhimurium 14028 assessed as absence bacterial growth measured after 18 to 24 hrs incubation by NCCLS method; type: functional, Salmonella enterica subsp. enterica serovar Typhimurium; conditions: Salmonella enterica, time 18-24 hrs
[4] = Antimicrobial activity against Salmonella pullorum C7913 assessed as absence bacterial growth measured after 18 to 24 hrs incubation by NCCLS method; type: functional, Salmonella enterica subsp. enterica serovar Pullorum; conditions: Salmonella enterica, time 18-24 hrs
Pseudomonas aeruginosa [5] = assay: Antimicrobial activity against Pseudomonas aeruginosa 27853 assessed as absence bacterial growth measured after 18 to 24 hrs incubation by NCCLS method; type: functional; conditions: time 18-24 hrs
Acinetobacter baumannii [6] = assay: Antimicrobial activity against Acinetobacter baumannii 1.6769 assessed as absence bacterial growth measured after 18 to 24 hrs incubation by NCCLS method; type: functional; conditions: time 18-24 hrs
Enterococcus faecalis [7] = assay: Antimicrobial activity against Enterococcus faecalis 29212 assessed as absence bacterial growth measured after 18 to 24 hrs incubation by NCCLS method; type: functional; conditions: time 18-24 hrs
Listeria monocytogenes [8] = assay: Antimicrobial activity against Listeria monocytogenes 1.10753 assessed as absence bacterial growth measured after 18 to 24 hrs incubation by NCCLS method; type: functional; conditions: time 18-24 hrs
Bacillus cereus [9] = assay: Antimicrobial activity against Bacillus cereus 1.932 assessed as absence bacterial growth measured after 18 to 24 hrs incubation by NCCLS method; type: functional; conditions: time 18-24 hrs
Staphylococcus aureus [10] = assay: Antimicrobial activity against Staphylococcus aureus 29213 assessed as absence bacterial growth measured after 18 to 24 hrs incubation by NCCLS method; type: functional; conditions: time 18-24 hrs
Staphylococcus aureus [11] = assay: Antimicrobial activity against Methicillin-resistant Staphylococcus aureus 43300 assessed as absence bacterial growth measured after 18 to 24 hrs incubation by NCCLS method; type: functional; conditions: time 18-24 hrs
[12] = system: Staphylococcus epidermidis; assay: Antimicrobial activity against Staphylococcus epidermidis 12228 assessed as absence bacterial growth measured after 18 to 24 hrs incubation by NCCLS method; type: functional; conditions: time 18-24 hrs
Staphylococcus aureus [13] = assay: Antimicrobial activity against Staphylococcus aureus 29213 assessed as absence bacterial growth measured after 18 to 24 hrs incubation by NCCLS m; type: functional; conditions: time 18-24 hrs
Escherichia coli [14] = assay: Antimicrobial activity against Escherichia coli 25922 assessed as bacterial killing measured after 16 hrs incubation; type: functional
Escherichia coli [15] = assay: Antimicrobial activity against Escherichia coli K88 assessed as bacterial killing measured after 16 hrs incubation; type: functional
Salmonella typhimurium [16] = assay: Antimicrobial activity against Salmonella typhimurium 14028 assessed as bacterial killing measured after 16 hrs incubation; type: functional, Salmonella enterica subsp. enterica serovar Typhimurium; conditions: Salmonella enterica
Salmonella typhimurium [17] = assay: Antimicrobial activity against Salmonella typhimurium C7731 assessed as bacterial killing measured after 16 hrs incubation; type: functional, Salmonella enterica subsp. enterica serovar Typhimurium; conditions: Salmonella enterica
[18] = Antimicrobial activity against Salmonella pullorum C7913 assessed as bacterial killing measured after 16 hrs incubation; type: functional, Salmonella enterica subsp. enterica serovar Pullorum; conditions: Salmonella enterica
Pseudomonas aeruginosa [19] = assay: Antimicrobial activity against Pseudomonas aeruginosa 27853 assessed as bacterial killing measured after 16 hrs incubation; type: functional
Acinetobacter baumannii [20] = assay: Antimicrobial activity against Acinetobacter baumannii 1.6769 assessed as bacterial killing measured after 16 hrs incubation; type: functional
Enterococcus faecalis [21] = assay: Antimicrobial activity against Enterococcus faecalis 29212 assessed as bacterial killing measured after 16 hrs incubation; type: functional
Listeria monocytogenes [22] = assay: Antimicrobial activity against Listeria monocytogenes 1.10753 assessed as bacterial killing measured after 16 hrs incubation; type: functional
Bacillus cereus [23] = assay: Antimicrobial activity against Bacillus cereus 1.932 assessed as bacterial killing measured after 16 hrs incubation; type: functional
Staphylococcus aureus [24] = assay: Antimicrobial activity against Staphylococcus aureus 29213 assessed as bacterial killing measured after 16 hrs incubation; type: functional
Staphylococcus aureus [25] = assay: Antimicrobial activity against Methicillin-resistant Staphylococcus aureus 43300 assessed as bacterial killing measured after 16 hrs incubation; type: functional
[26] = system: Staphylococcus epidermidis; assay: Antimicrobial activity against Staphylococcus epidermidis 12228 assessed as bacterial killing measured after 16 hrs incubation; type: functional
Staphylococcus aureus [27] = assay: Antimicrobial activity against Staphylococcus aureus 25923 assessed as bacterial killing measured after 16 hrs incubation; type: functional
Salmonella typhimurium [28] = assay: Antimicrobial activity against Salmonella typhimurium C7731 assessed as absence bacterial growth measured after 18 to 24 hrs incubation by NCCLS method; type: functional, Salmonella enterica subsp. enterica serovar Typhimurium; conditions: Salmonella enterica, time 18-24 hrs
Escherichia coli [29] = assay: Antimicrobial activity against Escherichia coli 25922 assessed as absence bacterial growth measured after 18 to 24 hrs incubation in presence of 50% serum by NCCLS method; type: functional; conditions: time 18-24 hrs
Escherichia coli [30] = assay: Antimicrobial activity against Escherichia coli 25922 assessed as absence bacterial growth measured after 18 to 24 hrs incubation in presence of 25% serum by NCCLS method; type: functional; conditions: time 18-24 hrs
Escherichia coli [31] = assay: Antimicrobial activity against Escherichia coli 25922 assessed as absence bacterial growth measured after 18 to 24 hrs incubation in presence of 12.5% serum by NCCLS method; type: functional; conditions: time 18-24 hrs
[32] = Hemolytic activity in human RBC at effective concentration at 128 uM measured after 1 hr by microplate reader relative to control; type: toxicity, cell-based, Erythrocyte; conditions: human red blood cells (erythrocytes), read-out: Activity
Escherichia coli [33] = assay: Antimicrobial activity against Escherichia coli 25922 assessed as absence bacterial growth measured after 18 to 24 hrs incubation in presence of NaCl by NCCLS method; type: functional; conditions: time 18-24 hrs
Escherichia coli [34] = assay: Antimicrobial activity against Escherichia coli 25922 assessed as absence bacterial growth measured after 18 to 24 hrs incubation in presence of KCl by NCCLS method; type: functional; conditions: time 18-24 hrs
Escherichia coli [35] = assay: Antimicrobial activity against Escherichia coli 25922 assessed as absence bacterial growth measured after 18 to 24 hrs incubation in presence of NH4Cl by NCCLS method; type: functional; conditions: time 18-24 hrs
Escherichia coli [36] = assay: Antimicrobial activity against Escherichia coli 25922 assessed as absence bacterial growth measured after 18 to 24 hrs incubation in presence of MgCl2 by NCCLS method; type: functional; conditions: time 18-24 hrs
Escherichia coli [37] = assay: Antimicrobial activity against Escherichia coli 25922 assessed as absence bacterial growth measured after 18 to 24 hrs incubation in presence of ZnCl2 by NCCLS method; type: functional; conditions: time 18-24 hrs
Escherichia coli [38] = assay: Antimicrobial activity against Escherichia coli 25922 assessed as absence bacterial growth measured after 18 to 24 hrs incubation in presence of FeCl3 by NCCLS method; type: functional; conditions: time 18-24 hrs
[39] = Cytotoxicity against human HEK-293T cells assessed as cell survival rate at 64 uM measured after 8 hrs by MTT assay relative to control; type: toxicity, cell-based; conditions: read-out: Activity
[40] = Cytotoxicity against porcine IPEC-J2 cells assessed as cell survival rate at 64 uM measured after 8 hrs by MTT assay relative to control; type: toxicity, cell-based, Sus scrofa; conditions: pig, read-out: Activity
Erythrocyte = assay: Hemolytic activity in human RBC at effective concentration measured after 1 hr by microplate reader analysis; type: toxicity, cell-based
[41] = Cytotoxicity against mouse RAW264.7 cells assessed as cell survival rate measured after 8 hrs by MTT assay; type: toxicity, cell-based
[42] = Cytotoxicity against human HEK-293T cells assessed as cell survival rate measured after 8 hrs by MTT assay; type: toxicity, cell-based
[43] = Cytotoxicity against porcine IPEC-J2 cells assessed as cell survival rate measured after 8 hrs by MTT assay; type: toxicity, cell-based, Sus scrofa; conditions: pig

## H-GKLWLKGGKLWLKAGKLWLKG-NH2
Escherichia coli [1]
  MIC: 2 µM
Escherichia coli [2]
  MIC: 1 µM
Salmonella typhimurium [3]
  MIC: 4 µM
[4]
  MIC: 2 µM
Pseudomonas aeruginosa [5]
  MIC: 4 µM
Acinetobacter baumannii [6]
  MIC: 2 µM
Enterococcus faecalis [7]
  MIC: 8 µM
Listeria monocytogenes [8]
  MIC: > 32 µM
Bacillus cereus [9]
  MIC: 4 µM
Staphylococcus aureus [10]
  MIC: 8 µM
Staphylococcus aureus [11]
  MIC: 4 µM
[12]
  MIC: 4 µM
Staphylococcus aureus [13]
  MIC: 4 µM
Escherichia coli [14]
  MBC: 4 µM
Escherichia coli [15]
  MBC: 1 µM
Salmonella typhimurium [16]
  MBC: 4 µM
Salmonella typhimurium [17]
  MBC: 8 µM
[18]
  MBC: 2 µM
Pseudomonas aeruginosa [19]
  MBC: 8 µM
Acinetobacter baumannii [20]
  MBC: 4 µM
Enterococcus faecalis [21]
  MBC: 16 µM
Listeria monocytogenes [22]
  MBC: > 32 µM
Bacillus cereus [23]
  MBC: 4 µM
Staphylococcus aureus [24]
  MBC: 8 µM
Staphylococcus aureus [25]
  MBC: 4 µM
[26]
  MBC: 8 µM
Staphylococcus aureus [27]
  MBC: 8 µM
Salmonella typhimurium [28]
  MIC: 4 µM
Escherichia coli [29]
  MIC: > 32 µM
Escherichia coli [30]
  MIC: 32 µM
Escherichia coli [31]
  MIC: 16 µM
[32]
  hemolysis at 1 h, 128 µM: < 10%
Escherichia coli [33]
  MIC: 16 µM
Escherichia coli [34]
  MIC: 2 µM
Escherichia coli [35]
  MIC: 2 µM
Escherichia coli [36]
  MIC: 8 µM
Escherichia coli [37]
  MIC: 1 µM
Escherichia coli [38]
  MIC: 2 µM
[39]
  viability at 8 h, 64 µM: > 80%
[40]
  viability at 8 h, 64 µM: > 80%
Erythrocyte
  HC10: > 128 µM
[41]
  IC50 at 8 h: > 64 µM
[42]
  IC50 at 8 h: > 64 µM
[43]
  IC50 at 8 h: 54.1 µM

## H-GKLWLKGGKLWLKGGKLWLKA-NH2
Escherichia coli [1]
  MIC: 2 µM
Escherichia coli [2]
  MIC: 0.5 µM
Salmonella typhimurium [3]
  MIC: 2 µM
[4]
  MIC: 2 µM
Pseudomonas aeruginosa [5]
  MIC: 4 µM
Acinetobacter baumannii [6]
  MIC: 4 µM
Enterococcus faecalis [7]
  MIC: 16 µM
Listeria monocytogenes [8]
  MIC: > 32 µM
Bacillus cereus [9]
  MIC: > 32 µM
Staphylococcus aureus [10]
  MIC: 16 µM
Staphylococcus aureus [11]
  MIC: 8 µM
[12]
  MIC: 8 µM
Staphylococcus aureus [13]
  MIC: > 32 µM
Escherichia coli [14]
  MBC: 4 µM
Escherichia coli [15]
  MBC: 0.5 µM
Salmonella typhimurium [16]
  MBC: 8 µM
Salmonella typhimurium [17]
  MBC: 8 µM
[18]
  MBC: 4 µM
Pseudomonas aeruginosa [19]
  MBC: 4 µM
Acinetobacter baumannii [20]
  MBC: 4 µM
Enterococcus faecalis [21]
  MBC: 16 µM
Listeria monocytogenes [22]
  MBC: > 32 µM
Bacillus cereus [23]
  MBC: > 32 µM
Staphylococcus aureus [24]
  MBC: 32 µM
Staphylococcus aureus [25]
  MBC: 8 µM
[26]
  MBC: 8 µM
Staphylococcus aureus [27]
  MBC: > 32 µM
Salmonella typhimurium [28]
  MIC: 4 µM
Escherichia coli [29]
  MIC: > 32 µM
Escherichia coli [30]
  MIC: > 32 µM
Escherichia coli [31]
  MIC: 32 µM
[32]
  hemolysis at 1 h, 128 µM: < 10%
Escherichia coli [33]
  MIC: 32 µM
Escherichia coli [34]
  MIC: 2 µM
Escherichia coli [35]
  MIC: 2 µM
Escherichia coli [36]
  MIC: 8 µM
Escherichia coli [37]
  MIC: 2 µM
Escherichia coli [38]
  MIC: 2 µM
[39]
  viability at 8 h, 64 µM: > 80%
[40]
  viability at 8 h, 64 µM: > 80%
Erythrocyte
  HC10: > 128 µM
[41]
  IC50 at 8 h: > 64 µM
[42]
  IC50 at 8 h: > 64 µM
[43]
  IC50 at 8 h: > 64 µM

## H-LKLWLKGGKLWLKGGKLWLKG-NH2
Escherichia coli [1]
  MIC: 4 µM
Escherichia coli [2]
  MIC: 1 µM
Salmonella typhimurium [3]
  MIC: > 32 µM
[4]
  MIC: 2 µM
Pseudomonas aeruginosa [5]
  MIC: 32 µM
Acinetobacter baumannii [6]
  MIC: 16 µM
Enterococcus faecalis [7]
  MIC: > 32 µM
Listeria monocytogenes [8]
  MIC: > 32 µM
Bacillus cereus [9]
  MIC: > 32 µM
Staphylococcus aureus [10]
  MIC: > 32 µM
Staphylococcus aureus [11]
  MIC: > 32 µM
[12]
  MIC: > 32 µM
Staphylococcus aureus [13]
  MIC: > 32 µM
Escherichia coli [14]
  MBC: 16 µM
Escherichia coli [15]
  MBC: 1 µM
Salmonella typhimurium [16]
  MBC: > 32 µM
Salmonella typhimurium [17]
  MBC: > 32 µM
[18]
  MBC: 2 µM
Pseudomonas aeruginosa [19]
  MBC: 32 µM
Acinetobacter baumannii [20]
  MBC: 16 µM
Enterococcus faecalis [21]
  MBC: > 32 µM
Listeria monocytogenes [22]
  MBC: > 32 µM
Bacillus cereus [23]
  MBC: > 32 µM
Staphylococcus aureus [24]
  MBC: > 32 µM
Staphylococcus aureus [25]
  MBC: > 32 µM
[26]
  MBC: > 32 µM
Staphylococcus aureus [27]
  MBC: > 32 µM
Salmonella typhimurium [28]
  MIC: > 32 µM
Escherichia coli [29]
  MIC: > 32 µM
Escherichia coli [30]
  MIC: > 32 µM
Escherichia coli [31]
  MIC: 32 µM
[32]
  hemolysis at 1 h, 128 µM: < 10%
Escherichia coli [33]
  MIC: > 32 µM
Escherichia coli [34]
  MIC: 8 µM
Escherichia coli [35]
  MIC: 8 µM
Escherichia coli [36]
  MIC: > 32 µM
Escherichia coli [37]
  MIC: 8 µM
Escherichia coli [38]
  MIC: 8 µM
Erythrocyte
  HC10: > 128 µM
[41]
  IC50 at 8 h: > 64 µM
[42]
  IC50 at 8 h: > 64 µM
[43]
  IC50 at 8 h: 33.4 µM
